Data on one compound can be found in patent publication US9884067B2, “Androgen receptor down-regulating agents and uses thereof” (UNIVERSITY OF MARYLAND EASTERN SHORE, priority 2013, dated 2018).

pIC50: −log10 of the molar value. Several values for one entry are separate records, joined by “and”; a condition that tells them apart may be missing. Identical values can stand only once.

Data set [1] addresses T1, AR (Homo sapiens, UniProt P10275, T878A).
T1 construct: host or cells: LNCaP
T1 sequence (P10275 1-920 T878A): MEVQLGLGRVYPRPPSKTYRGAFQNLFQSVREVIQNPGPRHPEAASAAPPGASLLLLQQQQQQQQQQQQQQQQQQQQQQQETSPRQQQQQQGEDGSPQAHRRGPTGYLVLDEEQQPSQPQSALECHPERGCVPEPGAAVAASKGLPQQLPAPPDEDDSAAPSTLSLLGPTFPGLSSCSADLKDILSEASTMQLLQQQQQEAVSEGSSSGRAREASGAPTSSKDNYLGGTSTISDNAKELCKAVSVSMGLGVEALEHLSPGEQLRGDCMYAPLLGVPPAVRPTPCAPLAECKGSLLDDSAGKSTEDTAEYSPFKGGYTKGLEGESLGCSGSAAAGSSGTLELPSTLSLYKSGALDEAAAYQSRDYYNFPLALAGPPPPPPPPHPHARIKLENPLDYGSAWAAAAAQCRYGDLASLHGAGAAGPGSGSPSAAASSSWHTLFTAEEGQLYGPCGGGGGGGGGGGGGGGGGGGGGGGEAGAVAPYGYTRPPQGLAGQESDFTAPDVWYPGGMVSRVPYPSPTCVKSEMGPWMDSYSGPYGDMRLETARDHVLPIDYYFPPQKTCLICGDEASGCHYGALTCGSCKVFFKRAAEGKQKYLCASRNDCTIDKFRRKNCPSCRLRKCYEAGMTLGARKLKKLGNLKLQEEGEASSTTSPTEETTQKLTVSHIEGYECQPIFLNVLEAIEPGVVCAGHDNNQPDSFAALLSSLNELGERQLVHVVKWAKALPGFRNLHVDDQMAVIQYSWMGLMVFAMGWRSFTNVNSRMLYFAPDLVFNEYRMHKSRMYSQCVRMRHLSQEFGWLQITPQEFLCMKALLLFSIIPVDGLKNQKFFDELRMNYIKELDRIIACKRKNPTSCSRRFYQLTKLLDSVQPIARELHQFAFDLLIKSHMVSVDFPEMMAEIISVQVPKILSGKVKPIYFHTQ
The data set can be described thus: AR down-regulation, western blot analysis in LNCaP cells. The format is cell-based. As to conditions: at 15 μM, 24 h. The procedure:
(§1) For the Western blot analyses, LNCaP or CWR22v1 prostate cancer cells were cultured. The cells were then treated with the indicated compounds and whole cell lysates were prepared using RIPA lysis buffer (Sigma Aldrich) and protease and phosphatase inhibitors (Sigma Aldrich). All of the antibodies were ordered from cell signaling technology. Protein content was determined using the Bradford Assay (Bio-Rad, Hercules, Calif., USA). Protein was subjected to SDS-PAGE and transferred onto nitrocellulosemembrane. Membranes were then incubated with secondary antibody (cell signaling technology) at room temperature for 1 hour. Bands were visualized by chemiluminescence (Millipore). Protein expression was normalized to β-actin and densitometry was carried out using Image J or ImageQuant 5.0 (Molecular Dynamics, Sunnyvale, Calif., USA). CWR22Rv1 cells were used for endogenous levels of splice variant AR-3. Protein levels were analyzed with respective antibodies; full length AR and β-actin antibodies were purchased from cell signaling, antibody specific for splice variant AR-3 was obtained from Dr. Yun Qiu, University of Maryland, School of Medicine, Baltimore.

Data set [2] deals with T1, AR. The data set can be described thus: Immunocytochemical analysis of AR expression in LNCaP cells. Conditions: 5 μM for 48 h. The format is cell-based.
In the next data set the test system is full-length AR. The data set can be described thus: Down-regulation of full-length AR, western blot in CWR22rv1 cells. The data set is classed as cell-based, human. Conditions: CWR22rv1 prostate cancer cell line. On the procedure:
(§2) Due to the potential implication of AR splice variants lacking the ligand-binding domain (truncated AR) in driving the progression of CRPC, the effects of the compounds on the down-regulation of AR-3 (also called AR-V7) were determined.
as §1, with “USA).” for “USA). CWR22Rv1 cells were used for endogenous levels of splice variant AR-3. Protein levels were analyzed with respective antibodies; full length AR and β-actin antibodies were purchased from cell signaling, antibody specific for splice variant AR-3 was obtained from Dr. Yun Qiu, University of Maryland, School of Medicine, Baltimore.”
(Immunoblotting shows a protein as a band on a membrane.)

The target of the next data set is T2, AR-3 (also called AR-V7) (Homo sapiens, UniProt P10275).
T2 construct: endogenous in cells; host or cells: CWR22Rv1
T2 sequence (P10275 1-644 isoform P10275-3): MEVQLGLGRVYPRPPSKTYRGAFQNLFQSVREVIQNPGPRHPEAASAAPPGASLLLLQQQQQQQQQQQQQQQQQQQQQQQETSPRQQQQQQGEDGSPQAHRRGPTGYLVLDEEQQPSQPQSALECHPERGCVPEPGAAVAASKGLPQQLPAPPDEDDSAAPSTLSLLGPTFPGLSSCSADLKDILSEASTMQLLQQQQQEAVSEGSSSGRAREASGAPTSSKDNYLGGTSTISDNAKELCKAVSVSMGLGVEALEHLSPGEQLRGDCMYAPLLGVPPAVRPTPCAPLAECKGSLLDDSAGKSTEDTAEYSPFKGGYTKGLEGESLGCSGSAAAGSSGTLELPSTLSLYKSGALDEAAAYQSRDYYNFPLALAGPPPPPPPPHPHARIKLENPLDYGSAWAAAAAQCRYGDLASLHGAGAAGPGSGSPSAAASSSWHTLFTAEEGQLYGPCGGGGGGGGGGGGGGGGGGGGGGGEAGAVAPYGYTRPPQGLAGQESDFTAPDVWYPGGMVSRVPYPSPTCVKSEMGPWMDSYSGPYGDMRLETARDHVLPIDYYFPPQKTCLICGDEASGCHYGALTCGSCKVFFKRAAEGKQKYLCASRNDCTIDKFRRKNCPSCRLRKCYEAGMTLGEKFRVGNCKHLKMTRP
The data set can be described thus: Down-regulation of truncated AR splice variant, western blot in CWR22rv1 cells. Conditions: CWR22rv1 prostate cancer cell line. The data set is classed as cell-based. On the procedure:
as §2
as §1, with “USA).” for “USA). CWR22Rv1 cells were used for endogenous levels of splice variant AR-3. Protein levels were analyzed with respective antibodies; full length AR and β-actin antibodies were purchased from cell signaling, antibody specific for splice variant AR-3 was obtained from Dr. Yun Qiu, University of Maryland, School of Medicine, Baltimore.”

The next data set deals with T3, human CYP17A1 (CYP171dH) (Homo sapiens, UniProt P05093).
T3 sequence (P05093 with tags, fused parts or gaps limits assumed): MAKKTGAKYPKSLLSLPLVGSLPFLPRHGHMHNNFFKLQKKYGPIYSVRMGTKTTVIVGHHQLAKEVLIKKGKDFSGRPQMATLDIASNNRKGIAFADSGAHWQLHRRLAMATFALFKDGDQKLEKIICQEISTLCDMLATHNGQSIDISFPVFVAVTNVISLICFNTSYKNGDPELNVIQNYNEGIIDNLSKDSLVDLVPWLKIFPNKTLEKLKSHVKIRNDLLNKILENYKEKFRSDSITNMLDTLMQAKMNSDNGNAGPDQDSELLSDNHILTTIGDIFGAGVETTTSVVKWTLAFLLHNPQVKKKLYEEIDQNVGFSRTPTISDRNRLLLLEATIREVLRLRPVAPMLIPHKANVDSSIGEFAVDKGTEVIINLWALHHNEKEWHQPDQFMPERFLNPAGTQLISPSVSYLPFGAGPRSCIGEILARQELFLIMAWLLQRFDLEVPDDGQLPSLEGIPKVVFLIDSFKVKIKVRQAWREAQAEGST
The data set can be described thus: CYP17 inhibition studies. The format is biochemical. As to conditions: each in duplicate, from dose-response curves. The procedure:
Some compounds were evaluated for their ability to inhibit CYP17 enzyme. A truncated version of human CYP17A1 (CYP171dH) was expressed in E. coli and then purified to homogeneity.

The subject of another data set is LNCaP cells. The data set can be described thus: MTT colorimetric anti-proliferative assay. The data set is classed as cell-based, human. The procedure:
The cells were treated for 7 days with renewal of test compound and media on day 4. On the 7th day, medium was renewed and MTT (3-(4,5-dimethylthiazol-2-yl)-2,5-diphenyl-2H-tetrazolium bromide) (Sigma, St Louis, Mo., USA) solution (0.5 mg MTT per ml of media) was added to the medium such that the ratio of MTT: medium was 1:10. The cells were incubated with MTT for 2 hours. The medium was then aspirated and DMSO was added to solubilize the violet MTT-formazan product.

The next data set concerns the target T4, AR in LNCaP cells (Homo sapiens, UniProt P10275, T878A).
T4 sequence (P10275 1-920 T878A): T1 sequence (P10275 1-920 T878A)
The data set can be described thus: Whole cell competitive binding assay with [3H]R1881. As to conditions: read-out: inhibition of [3H]R1881 binding / displacement.

Protocol for AR in LNCaP cells: The androgen receptor competitive binding assays were performed with the synthetic androgen methyltrienolone [^3H]R1881. […] To determine the kinetics of [^3H]R1881 binding to the LNCaP AR cells were plated (2-3×10^5 cells/well) in 24 well multiwell dishes in steroid-free medium and allowed to attach. […] Following a 2 hour incubation period at 37° C., cells were washed twice with ice-cold DPBS and solubilized in DPBS containing 0.5% SDS and 20% glycerol. Extracts were removed and cell associated radioactivity counted in a scintillation counter. The data was analyzed, including Kd and Bmax determination, by nonlinear regression using Graphpad Prism software (GraphPad Software, Inc, San Diego, Calif.). When the concentration of [^3H]R1881 required to almost saturate AR in both cell lines was established (5.0 nM), the ability of the test compounds (1 nM-10 μM) to displace [^3H]R1881 (5.0 nM) from the receptors was determined as described above. The IC50 of each compound was determined by nonlinear regression with Graphpad Prism software (GraphPad Software, Inc, San Diego, Calif.).

As a reminder, the pIC50 is −log10 of the IC50, conventionally taken in molar units. A lower pIC50 goes with a large IC50. One may read the GI50 as the concentration at which growth is held to half of that of the control. A word on the melting point: it is the temperature, or range, at which the solid turns liquid. For the compound `C[C@]12CC[C@H](OC(=O)n3ccnc3)CC1=CC[C@@H]1[C@@H]2CC[C@]2(C)C(n3cnc4ccccc43)=CC[C@@H]12` [Compound 47, 3β-(1H-Imidazole-1-carboxylate)-17-(1H-benzimidazol-1-yl)-androsta-5,16-diene], the melting point is 194 to 196 °C. The “AR down-regulation, fold more active than compound 5” value at AR [1] is recorded as “greater than 8 fold”. The “AR levels in the nucleus” value on AR [2] was “significant decrease in AR levels in the nucleus”. Besides, the “down-regulation of full-length AR” value with full-length AR was “significant down-regulation”. Besides, the “down-regulation of truncated AR (AR-3)” value at AR-3 (also called AR-V7) is on record as “significant down-regulation”. For the same compound, the pIC50 at human CYP17A1 (CYP171dH) was 3.59 to 4.03 and 3.91. Besides, the GI50 with LNCaP cells (Homo sapiens, LNCaP, 168 h, LNCaP, MTT, 7 days, Table 4, read-out: GI50 of C-3 modified compounds) amounted to 0.87 µM. Further, the “fold superior anti-proliferative activity” value in the data set with LNCaP cells (relative to compound 5) is reported as roughly 4 fold. Also, the inhibition at 30 µM at AR in LNCaP cells amounted to 20%.
